Consider nine compounds from patent US12233064B1, “Antarctic tunicate Synoicum species-derived alkaloids and methods of treatment” (University of South Florida, priority 2019, dated 2025).

One series has as its system zebrafish embryos. The series is described as follows: Developmental (phenotypic) zebrafish bioassay. The class given is in vivo, Danio rerio. Conditions: for Final C tested (concentration most representative of the phenotype) / MTC (Maximum Tolerated Concentration) / concentration at which interesting phenotype demonstrated: zebrafish embryos; for Final C tested (concentration most representative of the phenotype): 24 h post fertilization; for MTC (Maximum Tolerated Concentration): compound added 4 h, end 24 h post fertilization; for phenotype of treated embryos compared to control: 24h post-fertilization, FIG. 16. As to the method:
Wildtype Danio rerio fish were used for the assay. Once the zebrafish eggs were collected, they were placed in fresh media along with methylene blue, to deter fungal growth. The embryos were sorted and placed in a 96-well plate and the volume was standardized. For the purpose of this screening it was determined that the optimal point to add the compounds was 4 hours post fertilization and the ending point of the assay was 24 hours post fertilization. The delay in growth and the dysmorphologies were monitored and assessed.
A developmental zebrafish assay was utilized to test the activity of the extract, the subsequent fractions, and the isolated compounds. […] The Maximum Tolerated Concentration (MTC) was determined for each compound, alongside the minimum active concentration for each compound. The final tested concentration was determined as the one most representative of the phenotype.

Another series has as its system Leishmaniasis. Briefly: Leishmaniasis assay.
A further series relates to Plasmodium falciparum. The conditions noted are these: synthetic Meridianin A; cited from earlier work.
The subject of series [1] is A549 (Human lung adenocarcinoma epithelial cell line). Conditions: synthetic Meridianin A; cited from earlier work.

Turning to `Nc1nccc(C2(O)C(=O)Nc3ccccc32)n1` (stereo not shown) [Australindolone A], in the series with zebrafish embryos, the “Final C tested (concentration most representative of the phenotype)” value (“Final C tested” below) was determined as 300 µM and the “MTC (Maximum Tolerated Concentration)” value is 1000 µM.

With `Nc1nccc(-c2c[nH]c3c(Br)cc(Br)c(O)c23)n1` [Meridianin H], in the series with zebrafish embryos, the “Final C tested” value amounted to 60 µM and the “MTC (Maximum Tolerated Concentration)” value was 100 µM.

As for `Nc1nccc(-c2c[nH]c3cc(Br)cc(O)c23)n1` [Meridianin B], in the series on zebrafish embryos, the “Final C tested” value came out at 100 µM and the “MTC (Maximum Tolerated Concentration)” value is 300 µM.

As to `Nc1nccc(-c2c[nH]c3ccccc23)n1` [Meridianin G], in the series with zebrafish embryos, the “Final C tested” value is 100 µM and the “MTC (Maximum Tolerated Concentration)” value stood at 300 µM.

Turning to `Nc1nccc(-c2c[nH]c3cc(Br)c(Br)cc23)n1` [Meridianin F], in the series on zebrafish embryos, the “phenotype of treated embryos compared to control” value was “truncation of the anterior-posterior axis”, the “concentration at which interesting phenotype demonstrated” value came to 2 µM, the “Final C tested” value turned out to be 2 µM and the “MTC (Maximum Tolerated Concentration)” value was determined as 10 µM.

In the case of `Nc1nccc(-c2c[nH]c3c(Br)ccc(O)c23)n1` [Meridianin E], in the series with zebrafish embryos, the “Final C tested” value is 10 µM and the “MTC (Maximum Tolerated Concentration)” value was 100 µM.

On to `Nc1nccc(-c2c[nH]c3cccc(O)c23)n1` [Meridianin A], for which, in the series with zebrafish embryos, the “Final C tested” value was found to be 30 µM and the “MTC (Maximum Tolerated Concentration)” value is 100 µM. Further, the “result of Leishmaniasis assay” value in the series on Leishmaniasis is given as “notable”. Further, in the series with Plasmodium falciparum, the “growth of P. falciparum” value is reported as “inhibit the growth of P. falciparum”. In addition, the “cytotoxicity to A549” value in series [1] is given as “cytotoxic to A549”.

In the case of `Nc1nccc(-c2c[nH]c3cc(Br)ccc23)n1` [Meridianin D], in the series on zebrafish embryos, the “Final C tested” value amounted to 65 µM and the “MTC (Maximum Tolerated Concentration)” value is 100 µM.

For `Nc1nccc(-c2c[nH]c3ccc(Br)cc23)n1` [Meridianin C], in the series on zebrafish embryos, the “phenotype of treated embryos compared to control” value is on record as “truncation of the anterior-posterior axis”, the “concentration at which interesting phenotype demonstrated” value was determined as 3 µM, the “Final C tested” value came out at 3 µM and the “MTC (Maximum Tolerated Concentration)” value was found to be 10 µM.
